Drawing on US20130217664A1, “NOVEL COMPOUNDS USEFUL FOR THE TREATMENT OF DEGENERATIVE AND INFLAMMATORY DISEASES” (priority 2012, published 2013), this text covers IC50 for 18 compounds.

Type in all cases: biochemical
Assay [1] deals with T1, human TYK2 (Homo sapiens, UniProt P29597).
T1 construct: catalytic domain (amino acids 871-1187; catalog number 08-147); purchased Carna Biosciences 08-147
T1 sequence (P29597 871-1187): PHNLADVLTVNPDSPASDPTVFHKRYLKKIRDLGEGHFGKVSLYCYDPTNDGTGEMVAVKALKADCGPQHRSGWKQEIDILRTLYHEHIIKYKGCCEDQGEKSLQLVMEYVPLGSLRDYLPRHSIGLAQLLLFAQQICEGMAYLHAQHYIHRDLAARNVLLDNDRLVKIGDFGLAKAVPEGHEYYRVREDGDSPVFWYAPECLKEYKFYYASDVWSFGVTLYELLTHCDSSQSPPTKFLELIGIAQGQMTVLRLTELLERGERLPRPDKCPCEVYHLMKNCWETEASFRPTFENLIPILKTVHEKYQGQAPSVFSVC
In words: TYK2 inhibition assay. The note with it: recombinant human TYK2 catalytic domain, polyGT substrate. How it is done:
1.4 TYK2 Inhibition Assay
After 90 min at 30° C., reactions were stopped by adding 25 μL/well of 150 mM phosphoric acid. […] Plates were washed 6 times with 300 μL per well of a 75 mM phosphoric acid solution and the bottom of the plates was sealed. 40 μL/well of Microscint-20 was added, the top of the plates was sealed and readout was performed using the Topcount (Perkin Elmer). Kinase activity was calculated by subtracting counts per min (cpm) obtained in the presence of a positive control inhibitor (10 μM staurosporine) from cpm obtained in the presence of vehicle. The ability of a test compound to inhibit this activity was determined as:
(§1) Percentage inhibition=((cpm determined for sample with test compound present−cpm determined for sample with positive control inhibitor)divided by(cpm determined in the presence of vehicle−cpm determined for sample with positive control inhibitor))*100.
Dose dilution series were prepared for the compounds enabling the testing of dose-response effects in the TYK2 assay and the calculation of the IC50 for each compound.

The target of assay [2] is T2, human JAK2 (Homo sapiens, UniProt O60674).
T2 construct: catalytic domain (amino acids 808-1132; catalog number PV4210); GST; purchased Invitrogen PV4210
In words: JAK2 inhibition assay (polyGT substrate / Ulight-JAK1 peptide). As to conditions: recombinant human JAK2 catalytic domain; polyGT or Ulight-JAK1 peptide assay. How it is done: 1.2 JAK2 Inhibition Assay
1.2.1 JAK2 Assay polyGT Substrate
0.025 mU of JAK2 is incubated with 2.5 μg polyGT substrate (Sigma catalog number P0275) in kinase reaction buffer (5 mM MOPS pH 7.5, 9 mM MgAc, 0.3 mM EDTA, 0.06% Brij and 0.6 mM DTT, 1 μM non-radioactive ATP, 0.25 μCi ^33P-gamma-ATP (GE Healthcare, catalog number AH9968) final concentrations) with or without 5 μL containing test compound or vehicle (DMSO, 1% final concentration), in a total volume of 25 μL, in a polypropylene 96-well plate (Greiner, V-bottom). After 90 min at 30° C., reactions are stopped by adding of 25 μL/well of 150 mM phosphoric acid. […] Plates are washed 6 times with 300 μL per well of a 75 mM phosphoric acid solution and the bottom of the plates is sealed. 40 μL/well of Microscint-20 is added, the top of the plates is sealed and readout is performed using the Topcount (Perkin Elmer). Kinase activity is calculated by subtracting counts per min (cpm) obtained in the presence of a positive control inhibitor (10 μM staurosporine) from cpm obtained in the presence of vehicle. The ability of a test compound to inhibit this activity is determined as:
as §1
Dose dilution series are prepared for the compounds enabling the testing of dose-response effects in the JAK2 assay and the calculation of the IC50 for each compound.
1.2.2 JAK2 Ulight-JAK1 Peptide Assay
After 60 min at room temperature, reactions were stopped by adding 20 μL/well of detection mixture (1× detection buffer (Perkin Elmer, catalog number CR97-100C), 0.5 nM Europium-anti-phosphotyrosine (PT66) (Perkin Elmer, catalog number AD0068), 10 mM EDTA). […] Kinase activity was calculated by subtracting relative fluorescence units (RFU) obtained in the presence of a positive control inhibitor (10 μM staurosporine) from RFU obtained in the presence of vehicle. The ability of a test compound to inhibit this activity was determined as:
Percentage inhibition=((RFU determined for sample with test compound present−RFU determined for sample with positive control inhibitor)divided by(RFU determined in the presence of vehicle−RFU determined for sample with positive control inhibitor))*100.
Dose dilution series are prepared for compound enabling the testing of dose-response effects in the JAK2 assay and the calculation of the IC50 for the compound. Each compound is routinely tested at concentration of 20 μM followed by a 1/5 serial dilution, 10 points in a final concentration of 1% DMSO. […] The data are expressed as the average IC50 from the assays±standard error of the mean.

The target of assay [3] is T3, human JAK1 (Homo sapiens, UniProt P23458).
T3 construct: catalytic domain, amino acids 866-1154; catalog number PV4774; purchased Invitrogen PV4774
The assay is described as follows: JAK1 inhibition assay (polyGT substrate / Ulight-JAK1 peptide). The note with it: recombinant human JAK1 catalytic domain; polyGT or Ulight-JAK1 peptide assay. In short, it runs like this: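 Signal scaled between vehicle and 10 μM staurosporine. Radiometric polyGT reactions ran 45 min at 30 °C, counted after phosphoric-acid stop. Ulight peptide reactions ran 60 min at room temperature, fluorescence read after adding Eu-PT66 detection mix with EDTA.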

Assay [4] concerns the target T4, human JAK3 (Homo sapiens, UniProt P52333).
T4 construct: catalytic domain (amino acids 781-1124; catalog number PV3855); purchased Invitrogen PV3855
The assay is described as follows: JAK3 inhibition assay. The note with it: recombinant human JAK3 catalytic domain; polyGT substrate. How it is done:
1.3 JAK3 Inhibition Assay
0.5 ng JAK3 protein was incubated with 2.5 μg polyGT substrate (Sigma catalog number P0275) in kinase reaction buffer (25 mM Tris pH 7.5, 0.5 mM EGTA, 10 mM MgCl2, 2.5 mM DTT, 0.5 mM Na3VO4, 5 mM b-glycerolphosphate, 0.01% Triton X-100, 1 μM non-radioactive ATP, 0.25 μCi 33P-gamma-ATP (GE Healthcare, catalog number AH9968) final concentrations) with or without 5 μL containing test compound or vehicle (DMSO, 1% final concentration), in a total volume of 25 μL, in a polypropylene 96-well plate (Greiner, V-bottom). After 45 min at 30° C., reactions were stopped by adding 25 μL/well of 150 mM phosphoric acid. […] Plates were washed 6 times with 300 μL per well of a 75 mM phosphoric acid solution and the bottom of the plates was sealed. 40 μL/well of Microscint-20 was added, the top of the plates was sealed and readout was performed using the Topcount (Perkin Elmer). Kinase activity was calculated by subtracting counts per min (cpm) obtained in the presence of a positive control inhibitor (10 μM staurosporine) from cpm obtained in the presence of vehicle. The ability of a test compound to inhibit this activity was determined as:
as §1
Dose dilution series were prepared for the compounds enabling the testing of dose-response effects in the JAK3 assay and the calculation of the IC50 for each compound. Each compound was routinely tested at concentration of 20 μM followed by a 1/5 serial dilution, 10 points in a final concentration of 1% DMSO.

T3 sequence (P23458 866-1154): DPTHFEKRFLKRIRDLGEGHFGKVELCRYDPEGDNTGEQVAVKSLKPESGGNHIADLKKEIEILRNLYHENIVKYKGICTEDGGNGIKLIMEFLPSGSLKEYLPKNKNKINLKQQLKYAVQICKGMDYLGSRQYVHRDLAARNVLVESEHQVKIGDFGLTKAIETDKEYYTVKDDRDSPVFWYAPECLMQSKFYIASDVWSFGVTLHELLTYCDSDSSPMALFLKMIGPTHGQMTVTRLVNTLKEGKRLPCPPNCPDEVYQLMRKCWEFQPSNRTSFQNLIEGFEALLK
T4 sequence (P52333 781-1124): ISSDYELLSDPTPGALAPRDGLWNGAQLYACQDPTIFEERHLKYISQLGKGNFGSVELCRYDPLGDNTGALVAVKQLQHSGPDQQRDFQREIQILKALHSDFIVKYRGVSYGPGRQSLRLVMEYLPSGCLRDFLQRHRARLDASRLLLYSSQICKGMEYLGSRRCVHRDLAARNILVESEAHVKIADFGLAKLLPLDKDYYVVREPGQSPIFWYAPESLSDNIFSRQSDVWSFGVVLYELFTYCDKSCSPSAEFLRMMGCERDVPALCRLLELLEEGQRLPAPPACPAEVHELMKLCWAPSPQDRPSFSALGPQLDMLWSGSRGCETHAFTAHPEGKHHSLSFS
T2 sequence (O60674 808-1132): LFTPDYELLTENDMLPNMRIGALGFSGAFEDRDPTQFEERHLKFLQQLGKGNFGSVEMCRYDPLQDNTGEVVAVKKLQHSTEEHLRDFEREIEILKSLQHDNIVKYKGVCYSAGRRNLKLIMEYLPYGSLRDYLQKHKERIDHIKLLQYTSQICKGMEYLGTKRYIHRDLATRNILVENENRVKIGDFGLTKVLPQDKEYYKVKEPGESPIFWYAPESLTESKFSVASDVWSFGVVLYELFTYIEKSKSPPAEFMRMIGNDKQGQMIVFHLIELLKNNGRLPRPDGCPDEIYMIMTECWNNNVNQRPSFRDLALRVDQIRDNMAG

Take `CN(c1ccc(OC(F)(F)F)cc1)c1cc2c(cn1)ncn2C` [Compound 1, N,1-dimethyl-N-(4-(trifluoromethoxy)phenyl)-1H-imidazo[4,5-c]pyridin-6-amine]: the IC50 in assay [1] is over 1000 nM; in assay [2] it was over 1000 nM; in assay [3] it was 101 to 500 nM; in assay [4] it was over 1000 nM.
`COc1ccc(N(C)c2cc3c(cn2)ncn3C)cc1` [Compound 2, N-(4-methoxyphenyl)-N,1-dimethyl-1H-imidazo[4,5-c]pyridin-6-amine]: the IC50 in assay [1] was over 1000 nM; in assay [2], over 1000 nM; in assay [3] it was 101 to 500 nM; in assay [4], over 1000 nM.
Take `CCN(c1ccc2occc2c1)c1cc2c(cn1)ncn2C` [Compound 4, N-(benzofuran-5-yl)-N-ethyl-1-methyl-1H-imidazo[4,5-c]pyridin-6-amine]: the IC50 in assay [1] is 101 to 500 nM; in assay [2] it was over 1000 nM; in assay [3], 101 to 500 nM; in assay [4] it was over 1000 nM.
For the compound `CCN(c1ccc2c(cnn2C)c1)c1cc2c(cn1)ncn2C` [Compound 5, N-ethyl-1-methyl-N-(1-methyl-1H-indazol-5-yl)-1H-imidazo[4,5-c]pyridin-6-amine], the IC50 is 501 to 1000 nM in assay [1], over 1000 nM in assay [2], 101 to 500 nM in assay [3] and over 1000 nM in assay [4].
With `Cc1cc(OCc2cccnc2)ccc1N(C)c1cc2c(cn1)ncn2C` [Compound 55, N,1-dimethyl-N-(2-methyl-4-(pyridin-3-ylmethoxy)phenyl)-1H-imidazo[4,5-c]pyridin-6-amine], the IC50 is over 1000 nM in assay [1], over 1000 nM in assay [2], 101 to 500 nM in assay [3] and over 1000 nM in assay [4].
For the compound `CN(c1cc2c(cn1)ncn2C)c1ccccc1F` [Compound 67, N-(2-fluorophenyl)-N,1-dimethyl-1H-imidazo[4,5-c]pyridin-6-amine], the IC50 in assay [1] is 101 to 500 nM; in assay [2], over 1000 nM; in assay [3], 101 to 500 nM; in assay [4], over 1000 nM.
As to `CCc1cc(C(=O)N2CCC(OC)CC2)ccc1N(C)c1cc2c(cn1)ncn2C` [Compound 112, (3-ethyl-4-(methyl(1-methyl-1H-imidazo[4,5-c]pyridin-6-yl)amino)phenyl)(4-methoxypiperidin-1-yl)methanone], the half-inhibitory concentration (IC50) in assay [2] and in assay [3] was over 1000 nM in each case.
Consider `CCc1cc(C(=O)N2CC(C)(C)C2)ccc1N(C)c1cc2c(cn1)ncn2C` [Compound 113, (3,3-dimethylazetidin-1-yl)(3-ethyl-4-(methyl(1-methyl-1H-imidazo[4,5-c]pyridin-6-yl)amino)phenyl)methanone], for which the IC50 in assay [2] and in assay [3] was over 1000 nM throughout.
Take `CCc1ccc(C(=O)NCCOC)cc1N(C)c1cc2c(cn1)ncn2C` [Compound 116, 4-Ethyl-N-(2-methoxyethyl)-3-(methyl(1-methyl-1H-imidazo[4,5-c]pyridin-6-yl)amino)benzamide]: the IC50 in assay [2] is over 1000 nM; in assay [3], 101 to 500 nM.
For `CCc1cc(C(=O)N2CCOCC2)ccc1N(C)c1cc2c(cn1)ncn2C` [Compound 117, (3-ethyl-4-(methyl(1-methyl-1H-imidazo[4,5-c]pyridin-6-yl)amino)phenyl)(morpho-lino)methanone] the same measures were over 1000 nM and 101 to 500 nM.
On the same counts, the results for `CCc1cc(C(=O)N(C)C)ccc1N(C)c1cc2c(cn1)ncn2C` [Compound 118, 3-ethyl-N,N-dimethyl-4-(methyl(1-methyl-1H-imidazo[4,5-c]pyridin-6-yl)amino)benzamide] are over 1000 nM and 101 to 500 nM.
For `CCc1ccc(COC)cc1N(C)c1cc2c(cn1)ncn2C` [Compound 122, N-(2-Ethyl-5-(methoxymethyl)phenyl)-N,1-dimethyl-1H-imidazo[4,5-c]pyridin-6-amine] the same measures were over 1000 nM and 101 to 500 nM.
Regarding `CCc1ccc(C(=O)Nc2cccnc2)cc1N(C)c1cc2c(cn1)ncn2C` [Compound 124, 4-ethyl-3-(methyl(1-methyl-1H-imidazo[4,5-c]pyridin-6-yl)amino)-N-(pyridin-3-yl)benzamide], the IC50 in assay [2] is over 1000 nM; in assay [3], 101 to 500 nM.
On the same counts, the results for `CCc1ccc(C(=O)NCc2ccccn2)cc1N(C)c1cc2c(cn1)ncn2C` [Compound 125, 4-ethyl-3-(methyl(1-methyl-1H-imidazo[4,5-c]pyridin-6-yl)amino)-N-(pyridin-2-ylmethyl)benzamide] are over 1000 nM and 101 to 500 nM.
Turning to `CCc1ccc(C(=O)NC)cc1N(C)c1cc2c(cn1)ncn2C` [Compound 128, 4-ethyl-N-methyl-3-(methyl(1-methyl-1H-imidazo[4,5-c]pyridin-6-yl)amino)benzamide], the IC50 in assay [2] is over 1000 nM; in assay [3] it was 101 to 500 nM.
On to `COc1ccc(Cc2cc3c(cn2)ncn3C)cc1` [Compound 275, 6-(4-methoxybenzyl)-1-methyl-1H-imidazo[4,5-c]pyridine], for which the IC50 in assay [2] and in assay [3] was over 1000 nM each time.
Turning to `CCc1ccccc1Oc1cc2c(cn1)ncn2C` [Compound 298, 6-(2-Ethyl-phenoxy)-1-methyl-1H-imidazo[4,5-c]pyridine], the IC50 in assay [2] was over 1000 nM; in assay [3] it was 501 to 1000 nM.
As for `CCc1ccccc1N(CCC#N)c1cc2c(cn1)ncn2C` [Compound 464, 3-((2-ethylphenyl)(1-methyl-1H-imidazo[4,5-c]pyridin-6-yl)amino)propanenitrile], the IC50 in assay [1], in assay [2] and in assay [4] was over 1000 nM in each case.
